Results published in publication PMC6804193, “Extending the Inhibition Profiles of Coumarin-Based Compounds Against Human Carbonic Anhydrases: Synthesis, Biological, and In Silico Evaluation” (Molecules, 2019).
Like-named read-outs stand apart in the source and are kept apart here.

What was measured:
Test in all cases: stopped-flow CO2 hydrase assay
Format in all cases: biochemical
hCA I = target: T1, hCA I (Homo sapiens, UniProt P00915)
T1 construct: gene CA1; recombinant, obtained in-house; cytosolic isoform
T1 sequence (P00915 2-261): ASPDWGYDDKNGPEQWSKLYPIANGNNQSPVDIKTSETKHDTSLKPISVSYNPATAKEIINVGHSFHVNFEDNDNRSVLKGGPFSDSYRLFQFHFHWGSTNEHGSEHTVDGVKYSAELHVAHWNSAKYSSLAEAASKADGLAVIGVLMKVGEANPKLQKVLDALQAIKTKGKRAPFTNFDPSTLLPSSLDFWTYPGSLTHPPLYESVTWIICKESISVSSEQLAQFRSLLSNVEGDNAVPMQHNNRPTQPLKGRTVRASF
Excerpt: stopped-flow CO2 hydrase assay on hCA I

hCA II = target: T2, hCA II (Homo sapiens, UniProt P00918)
T2 construct: gene CA2; recombinant, obtained in-house; cytosolic isoform
Excerpt: stopped-flow CO2 hydrase assay on hCA II

hCA XII [1] = target: T3, hCA XII (Homo sapiens, UniProt O43570); conditions: read-out: KI^* (nM) / hCA II
T3 construct: gene CA12; recombinant, obtained in-house
T3 sequence (O43570 25-354): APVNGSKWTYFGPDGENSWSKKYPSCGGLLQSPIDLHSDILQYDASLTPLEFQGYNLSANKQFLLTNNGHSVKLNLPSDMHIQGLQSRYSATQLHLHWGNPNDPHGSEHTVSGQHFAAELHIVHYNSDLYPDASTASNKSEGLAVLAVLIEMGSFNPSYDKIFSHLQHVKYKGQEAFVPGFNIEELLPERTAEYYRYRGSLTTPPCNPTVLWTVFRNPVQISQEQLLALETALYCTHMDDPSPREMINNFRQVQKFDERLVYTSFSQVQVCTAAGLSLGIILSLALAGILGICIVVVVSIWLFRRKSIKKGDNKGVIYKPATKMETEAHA

hCA IX = target: T4, hCA IX (Homo sapiens, UniProt Q16790)
T4 construct: gene CA9; recombinant, obtained in-house
Excerpt: stopped-flow CO2 hydrase assay on hCA IX

hCA XII [2] = target: T3, hCA XII; conditions: read-out: KI^* (nM) / hCAXII
Excerpt: stopped-flow CO2 hydrase assay on hCA XII

[3] = CO2 […], […] Hepes pH […] Na2SO4, […] h preincubation at room temperature (prodrug inhibitors)

Structure (SMILES) | Ki (hCA I) [nM] | Ki (hCA II) [nM] | Ki (hCA XII [1]) [nM] | Ki (hCA IX) [nM] | Ki (hCA I; [3]) [nM] | Ki (hCA II; [3]) [nM] | Ki (hCA XII [2]; [3]) [nM] | Ki (hCA IX; [3]) [nM] | Ki (hCA XII [2]) [nM]
Cc1c(O)c(CN(C)C)cc2c(-c3cc4ccccc4oc3=O)cc(=O)oc12 [compound 2, 6’-((Dimethylamino)methyl)-7’-hydroxy-8’-methyl-2H,2’H-[3,4’-bichromene]-2,2’-dione] | > 10000 | > 10000 | > 10000 | 85.6 |  |  |  |  | 
COc1cc(C2CC(=O)Oc3ccc(C(C)=O)c(O)c32)ccc1O (racemic) [compound 6, 6-Acetyl-5-hydroxy-4-(4-hydroxy-3-methoxyphenyl)chroman-2-one] | > 10000 | > 10000 | > 10000 | 189 |  |  |  |  | 
COc1ccc(C2CC(=O)Oc3ccc(C(C)=O)c(O)c32)cc1OCCc1ccc2c(c1)CCO2 (racemic) [compound 5, 6-Acetyl-4-(3-(2-(2,3-dihydrobenzofuran-5-yl)ethoxy)-4-methoxyphenyl)-5-hydroxychroman-2-one] | > 10000 | > 10000 | > 10000 | 172 |  |  |  |  | 
CC(=O)c1ccc2c(c1O)C(c1ccccc1OCc1ccccn1)CC(=O)O2 (racemic) [compound 7, 6-Acetyl-5-hydroxy-4-(2-(pyridin-2-ylmethoxy)phenyl)chroman-2-one] | > 10000 | > 10000 | > 10000 | 139 |  |  |  |  | 
CC(=NO)c1c(OCc2ccc(Cl)cc2)ccc2c(C)cc(=O)oc12 [compound 1, 7-((4-Chlorobenzyl)oxy)-8-(1-(hydroxyimino)ethyl)-4-methyl-2H-chromen-2-one] |  |  |  |  | > 10000 | > 10000 | 558 | 49.3 | 
Cc1cc(=O)oc2c(C)c(O)c(C(=O)/C=C/N(C)C)cc12 [compound 10, coumarin 10] | > 10000 | > 10000 |  | 25.7 |  |  |  |  | 604
O=c1cc(-c2cc3ccc(O)cc3oc2=O)c2ccc(O)c(O)c2o1 [compound 3, 7,7’,8’-Trihydroxy-2H,2’H-[3,4’-bichromene]-2,2’-dione] | > 10000 | > 10000 | > 10000 | 133 |  |  |  |  | 
CCCc1cc2c(=O)c(-c3ccc4c(c3)OCCO4)coc2cc1OCc1cc(=O)oc2cc(C)cc(C)c12 [compound 9, coumarin 9] | > 10000 | > 10000 | > 10000 | 171 |  |  |  |  | 
O=C(Nc1ccc2oc(=O)ccc2c1)[C@@H]1CSC2c3ccccc3C(=O)N21 (stereo partly drawn) [compound 11, coumarin 11] | > 10000 | > 10000 |  | 9.4 |  |  |  |  | 591
O=C(NN1C(=O)/C(=C/C2=Cc3ccccc3OC2)SC1=S)c1cccnc1 [compound 12, 2H-chromene 12] | > 10000 | > 10000 |  | 241 |  |  |  |  | 432
CCOC(=O)CC(C1=Cc2ccccc2OC1)c1oc(CO)cc(=O)c1O (stereo not drawn) [compound 4, Ethyl 3-(2H-chromen-3-yl)-3-(3-hydroxy-6-(hydroxymethyl)-4-oxo-4H-pyran-2-yl) propanoate] | > 10000 | > 10000 |  | 243 |  |  |  |  | 467
COc1ccc2occ(C3CC(=O)Oc4ccc(C(C)=O)c(O)c43)c(=O)c2c1 (racemic) [compound 8, 3-(6-Acetyl-5-hydroxy-2-oxochroman-4-yl)-6-methoxy-4H-chromen-4-one] | > 10000 | > 10000 | > 10000 | 175 |  |  |  |  | 
